Data taken from patent publication US11466044B2 (WAYNE STATE UNIVERSITY, priority 2017, dated 2022).
Values after ≈ are worked out from the molar mass of the structure shown. Where two headings read alike, the source gives them in different places.

Key:
[1] = tested on: Enterobacter cloacae AG290; test: MIC by broth microdilution, Enterobacter cloacae; assay type: cell-based; details: strain AG290 Enterobacter cloacae; read-out: MIC AG290 E. cloacae
[2] = tested on: rabbit reticulocyte ribosomes; test: in-vitro translation assay, rabbit reticulocyte ribosomes; assay type: biochemical; details: mammalian cytosolic ribosomes (rabbit)
P aeruginosa = test: MIC by broth microdilution, P aeruginosa isolates; assay type: cell-based, Pseudomonas aeruginosa
[3] = tested on: mitochondrial ribosome (human chimeric); assay type: biochemical
Excerpt: (§1) The antiribosomal activity of these compounds was investigated with cell-free translation assays using both wild type bacterial ribosomes and hybrid ribosomes carrying eukaryotic decoding A sites enabling the prediction of selectivity.

[4] = tested on: cytosolic ribosome (human chimeric); assay type: biochemical
Excerpt: as §1

E coli wild type = test: MIC by broth microdilution, wild type E coli; assay type: cell-based; details: Escherichia coli
[5] = tested on: E coli carrying specific resistance determinants; test: MIC by broth microdilution, E coli carrying specific resistance determinants; assay type: cell-based

Compound: NC[C@@H]1O[C@H](O[C@H]2[C@@H](O)[C@H](O[C@@H]3[C@@H](O)[C@H](N)C[C@H](N)[C@H]3O[C@H]3O[C@H](CO)[C@@H](O)[C@H](O)[C@H]3N)O[C@@H]2CO)[C@H](N)[C@@H](O)[C@@H]1O [paromomycin, reference compound]
- MIC [1]: 2 µg/mL (≈ 3.25 µM)
- IC50 [2]: 21 µM
- MIC50 (P aeruginosa; Pseudomonas aeruginosa, read-out: MIC50 P aeruginosa AG31): > 128 µg/mL
- MIC50 (P aeruginosa; Pseudomonas aeruginosa, read-out: MIC50 P aeruginosa AG32): > 128 µg/mL
- MIC50 (P aeruginosa; Pseudomonas aeruginosa, read-out: MIC50 P aeruginosa AG33): > 128 µg/mL
- MIC50 (P aeruginosa; Pseudomonas aeruginosa, read-out: MIC50 P aeruginosa AG86): > 128 µg/mL
- MIC (P aeruginosa; Pseudomonas aeruginosa, read-out: MIC AG031 P. aer. APH(3′)-II): > 128 µg/mL
- MIC (P aeruginosa; Pseudomonas aeruginosa, read-out: MIC AG032 P. aer. APH(3′)-II): > 128 µg/mL
- MIC50 P aeruginosa AG31 (P aeruginosa; strain AG31, Table 1 (Example 2)): >128 µg/mL
- MIC50 P aeruginosa AG32 (P aeruginosa; strain AG32, Table 1 (Example 2)): >128 µg/mL
- MIC50 P aeruginosa AG33 (P aeruginosa; strain AG33, Table 1 (Example 2)): >128 µg/mL
- MIC50 P aeruginosa AG86 (P aeruginosa; strain AG86, Table 1 (Example 2)): >128 µg/mL
- MIC (P aeruginosa; strain AG220 Pseudomonas aeruginosa ATCC27853, read-out: MIC AG220 P. aerugin): > 64 µg/mL
- IC50 ([3]; mitochondrial, Table 3 (Example 1), read-out: IC50 Mit): 140 µM
- IC50 ([3]; mitochondrial, Table 3 (Example 2), read-out: IC50 Mit): 140 µM
- IC50 ([3]; mitochondrial, Table 4 (Example 3), read-out: IC50 Mit): 140 µM
- IC50 ([3]; ribosomes with a human mitochondrial decoding site, read-out: IC50 Mitoch.): 140 µM
- IC50 ([4]; cytosolic, Table 3 (Example 1), read-out: IC50 Cyt): 31 µM
- IC50 ([4]; cytosolic, Table 3 (Example 2), read-out: IC50 Cyt): 31 µM
- IC50 ([4]; cytosolic, Table 4 (Example 3), read-out: IC50 Cyt): 31 µM
- IC50 ([4]; ribosomes with a human cytosolic decoding site, read-out: IC50 Cytosolic): 31 µM
- MIC (E coli wild type; AG006 wt, Table 2 (Example 1), read-out: MIC E coli AG006 wt): 1 to 2 µg/mL (≈ 1.62 to 3.25 µM)
- MIC (E coli wild type; AG102 wt, Table 2 (Example 1), read-out: MIC E coli AG102 wt): 1 µg/mL (≈ 1.62 µM)
- MIC (E coli wild type; AG160 wt, Table 2 (Example 1), read-out: MIC E coli AG160 wt): 2 to 4 µg/mL (≈ 3.25 to 6.5 µM)
- MIC (E coli wild type; ATCC25922, strain AG212 E. coli (ATCC25922), read-out: MIC AG212 E. coli): 2 to 4 µg/mL (≈ 3.25 to 6.5 µM)
- MIC50 (E coli wild type; BM13 (AG06) wt, Table 2A (Example 2), read-out: MIC50 E coli BM13 (AG06) wt): 2 to 4 µg/mL (≈ 3.25 to 6.5 µM)
- MIC (E coli wild type; E. coli strain pH430, WT, read-out: MIC pH430 WT): 1 to 2 µg/mL (≈ 1.62 to 3.25 µM)
- MIC (E coli wild type; WT, Table 3 (Example 1), read-out: MIC WT): 1 to 2 µg/mL (≈ 1.62 to 3.25 µM)
- MIC (E coli wild type; WT, Table 3 (Example 2), read-out: MIC WT): 1 to 2 µg/mL (≈ 1.62 to 3.25 µM)
- MIC (E coli wild type; WT, Table 4 (Example 3), read-out: MIC E. coli WT): 1 to 2 µg/mL (≈ 1.62 to 3.25 µM)
- MIC (E coli wild type; WT, Table 5 (Example 3), read-out: MIC E. coli WT): 1 to 2 µg/mL (≈ 1.62 to 3.25 µM)
- MIC (E coli wild type; clinical isolate AG001, WT, read-out: MIC AG001 E. coli WT): 2 µg/mL (≈ 3.25 µM)
- MIC (E coli wild type; clinical isolate AG001, Table 1 (Example 3), read-out: MIC E coli AG001): 16 to 32 µg/mL (≈ 26 to 52 µM)
- MIC (E coli wild type; clinical isolate AG003, Table 1 (Example 3), read-out: MIC E coli AG003): 8 to 16 µg/mL (≈ 13 to 26 µM)
- MIC (E coli wild type; clinical isolate AG055, WT, read-out: MIC AG055 E. coli WT): 2 µg/mL (≈ 3.25 µM)
- MIC (E coli wild type; clinical isolate AG055, Table 1 (Example 3), read-out: MIC E coli AG055): 8 µg/mL (≈ 13 µM)
- MIC (E coli wild type; clinical isolate AG160 WT, Table 2 (Example 4), read-out: MIC AG160 E. coli WT): 2 to 4 µg/mL (≈ 3.25 to 6.5 µM)
- MIC (E coli wild type; engineered strain pH430 WT, Table 2 (Example 4), read-out: MIC pH430 E. coli WT): 1 to 2 µg/mL (≈ 1.62 to 3.25 µM)
- MIC50 (E coli wild type; read-out: MIC50 E coli pH430 WT): 1 to 2 µg/mL (≈ 1.62 to 3.25 µM)
- MIC (E coli wild type; read-out: MIC E coli AG006 Wild type, AG006 Wild type, Table 2 (Example 3)): 2 µg/mL (≈ 3.25 µM)
- MIC (E coli wild type; read-out: MIC E coli AG104 Wild type, AG104 Wild type, Table 2 (Example 3)): 2 µg/mL (≈ 3.25 µM)
- MIC50 (E coli wild type; strain AG01, Table 1 (Example 1), read-out: MIC50 E coli AG01): 2 to 4 µg/mL (≈ 3.25 to 6.5 µM)
- MIC50 (E coli wild type; strain AG01, Table 1 (Example 2), read-out: MIC50 E coli AG01): 2 to 4 µg/mL (≈ 3.25 to 6.5 µM)
- MIC50 (E coli wild type; strain AG03, Table 1 (Example 1), read-out: MIC50 E coli AG03): 4 µg/mL (≈ 6.5 µM)
- MIC50 (E coli wild type; strain AG03, Table 1 (Example 2), read-out: MIC50 E coli AG03): 4 µg/mL (≈ 6.5 µM)
- MIC50 (E coli wild type; strain AG55, Table 1 (Example 1), read-out: MIC50 E coli AG55): 2 to 4 µg/mL (≈ 3.25 to 6.5 µM)
- MIC50 (E coli wild type; strain AG55, Table 1 (Example 2), read-out: MIC50 E coli AG55): 2 to 4 µg/mL (≈ 3.25 to 6.5 µM)
- MIC APH(3′)-II ([5]; APH(3′)-II, Table 3 (Example 2)): >64 µg/mL
- MIC50 ([5]; Escherichia coli, read-out: MIC50 E coli AG07 AAC(3), AG07 AAC(3), Table 2A (Example 2)): 4 to 8 µg/mL (≈ 6.5 to 13 µM)
- MIC50 ([5]; Escherichia coli, read-out: MIC50 E coli AG09 AAC(6′), AG09 AAC(6′), Table 2A (Example 2)): 8 to 16 µg/mL (≈ 13 to 26 µM)
- MIC50 ([5]; Escherichia coli, read-out: MIC50 E coli AG036 ANT(4′,4″), AG036 ANT(4′,4″), Table 2A (Example 2)): 256 µg/mL (≈ 416 µM)
- MIC50 ([5]; Escherichia coli, read-out: MIC50 E coli AG036 ANT(4′,4″), AG036 ANT(4′,4″), Table 2B (Example 2)): 32 to 64 µg/mL (≈ 52 to 104 µM)
- MIC50 ([5]; Escherichia coli, read-out: MIC50 E coli AG037 APH(3′)-III, AG037 APH(3′)-III, Table 2B (Example 2)): > 128 µg/mL
- MIC50 ([5]; Escherichia coli, read-out: MIC50 E coli AG037 APH(3′,5″), AG037 APH(3′,5″), Table 2A (Example 2)): > 256 µg/mL
- MIC50 ([5]; Escherichia coli, read-out: MIC50 E coli AG103 ArmA, AG103 ArmA, Table 2A (Example 2)): 4 µg/mL (≈ 6.5 µM)
- MIC50 ([5]; Escherichia coli, read-out: MIC50 E coli AG103 armA, AG103 armA, Table 2B (Example 2)): 2 µg/mL (≈ 3.25 µM)
- MIC50 ([5]; Escherichia coli, read-out: MIC50 E coli AG105 AAC(2′), AG105 AAC(2′), Table 2A (Example 2)): 2 to 4 µg/mL (≈ 3.25 to 6.5 µM)
- MIC50 ([5]; Escherichia coli, read-out: MIC50 E coli pH414 AAC(6′)-I, pH414 AAC(6′)-I, Table 2B (Example 2)): 2 µg/mL (≈ 3.25 µM)
- MIC50 ([5]; Escherichia coli, read-out: MIC50 E coli pH415 AAC(6′)-II, pH415 AAC(6′)-II, Table 2B (Example 2)): 2 to 4 µg/mL (≈ 3.25 to 6.5 µM)
- MIC50 ([5]; Escherichia coli, read-out: MIC50 E coli pH421 APH(3′)-I, pH421 APH(3′)-I, Table 2B (Example 2)): > 128 µg/mL
- MIC50 ([5]; Escherichia coli, read-out: MIC50 E coli pH422 APH(3′)-II, pH422 APH(3′)-II, Table 2B (Example 2)): > 128 µg/mL
- MIC50 ([5]; Escherichia coli, read-out: MIC50 E coli pH423 APH(3)-VI, pH423 APH(3)-VI, Table 2B (Example 2)): > 128 µg/mL
- MIC50 ([5]; Escherichia coli, read-out: MIC50 E coli pH432 ANT(4′), pH432 ANT(4′), Table 2B (Example 2)): 1 to 2 µg/mL (≈ 1.62 to 3.25 µM)
- MIC ([5]; Escherichia coli, read-out: MIC AAC(6′)): 2 to 4 µg/mL (≈ 3.25 to 6.5 µM)
